Drawing on publication PMC8781988, “Phloroglucinol as a Potential Candidate against Trypanosoma congolense Infection: Insights from In Vivo, In Vitro, Molecular Docking and Molecular Dynamic Simulation Analyses” (Molecules, 2022), this text covers Ki for one compound.

The structures appear in SMILES notation.

In this experiment the target is T1, T. congolense sialidase (EC 3.2.1.18).
T1 construct: native bloodstream-form enzyme, isolated and partially purified on a DEAE cellulose column
As to the kind of experiment: enzyme inhibition kinetics (fetuin substrate, thiobarbituric acid assay, double reciprocal plot) with partially purified enzyme. In kind it is biochemical, Trypanosoma congolense.

For `Oc1cc(O)cc(O)c1` [phloroglucinol], the affinity, expressed as Ki, was 181 nM.
